The values below come from ChEMBL document CHEMBL1201862, “PubChem BioAssay data set” (2004).

Each structure is given as a SMILES string. Activity calls are given as the source filed them.

For experiment [1], the target named is Photoreceptor-specific nuclear receptor (Homo sapiens, UniProt Q9Y5X4). The class given is functional, cell-based.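 Further: CHO-S cells with Gal4-NCOR and VP16-NR2E3 two-hybrid luciferase reporter.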
Experiment [2] deals with Tyrosine-protein phosphatase non-receptor type 5 (Homo sapiens, UniProt P54829). As to the kind of experiment: STEP phosphatase inhibitors, confirmation, biochemical, fluorescence intensity, uHTS hits (AID 602372). In kind it is functional. As to conditions: read-out: IC50_Mean.
In experiment [3] the target is Tyrosine-protein phosphatase non-receptor type 11 (Homo sapiens, UniProt Q06124). As to the kind of experiment: SHP2 phosphatase inhibition, dose response, selectivity assay for STEP inhibitor project, biochemical (AID 602367). In kind it is functional. As to conditions: read-out: IC50_Mean.
Experiment [4] has as its target Dual specificity protein phosphatase 3 (Homo sapiens, UniProt P51452). Briefly: VHR phosphatase inhibition, dose response, selectivity assay for STEP inhibitor project, biochemical (AID 602374). In kind it is functional. As to conditions: read-out: IC50_Mean.
Another experiment deals with T1, Caspase-6 (Homo sapiens, UniProt P55212).
T1 sequence (P55212 whole entry): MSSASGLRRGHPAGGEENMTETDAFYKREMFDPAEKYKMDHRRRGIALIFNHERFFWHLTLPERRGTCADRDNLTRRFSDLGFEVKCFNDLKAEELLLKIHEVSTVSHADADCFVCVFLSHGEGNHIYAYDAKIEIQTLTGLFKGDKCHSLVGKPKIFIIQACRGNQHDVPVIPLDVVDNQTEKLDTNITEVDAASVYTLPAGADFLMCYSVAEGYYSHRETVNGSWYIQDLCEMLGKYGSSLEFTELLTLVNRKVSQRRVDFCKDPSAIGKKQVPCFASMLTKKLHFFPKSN
Briefly: human caspase-6 inhibitors, dose response, biochemical, VEID-R110 fluorescence, cherry-pick (AID 720632).

Experiment [5] has as its target T2, ATP-dependent translocase ABCB1 (Homo sapiens, UniProt P08183). Briefly: ABCG2 efflux pump inhibitor potency, dose response, Ig-MXP3 cells, JC-1, flow cytometry, set 2 (AID 504566).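 Further: flow cytometry median green fluorescence of retained JC-1 dye; potency of efflux pump inhibition measured as rising substrate retention.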 In kind it is functional. As to conditions: read-out: EC50_MICROM_.
Experiment [6] concerns the target T2, ATP-dependent translocase ABCB1. Briefly: ABCB1 efflux inhibitor potency, dose response, Jurkat-DNR cells, JC-1, flow cytometry, set 2 (AID 504569).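 Further: potency of pump inhibitors that raise cellular JC-1 green fluorescence up to the nicardipine level.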 In kind it is functional. The following applies: read-out: EC50_MICROM_. A general note: In flow cytometry, cells or beads pass a laser one at a time.
For experiment [7], the target named is T3, Corticotropin-releasing factor receptor 2/Corticotropin-releasing factor-binding protein (Homo sapiens, UniProt P24387+Q13324).
T3 sequence (Q13324 whole entry): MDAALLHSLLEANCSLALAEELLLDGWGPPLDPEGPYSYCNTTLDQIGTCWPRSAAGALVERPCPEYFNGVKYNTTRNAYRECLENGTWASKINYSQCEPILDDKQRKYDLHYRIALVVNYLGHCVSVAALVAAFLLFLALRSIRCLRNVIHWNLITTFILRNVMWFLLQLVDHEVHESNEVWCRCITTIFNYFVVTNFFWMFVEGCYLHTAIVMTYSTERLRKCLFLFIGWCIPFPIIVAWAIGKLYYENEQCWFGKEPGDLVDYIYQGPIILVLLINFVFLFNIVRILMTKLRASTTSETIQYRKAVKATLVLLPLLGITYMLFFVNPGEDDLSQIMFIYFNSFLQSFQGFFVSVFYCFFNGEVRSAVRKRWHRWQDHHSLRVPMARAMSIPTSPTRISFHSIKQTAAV
T3 sequence (P24387 whole entry): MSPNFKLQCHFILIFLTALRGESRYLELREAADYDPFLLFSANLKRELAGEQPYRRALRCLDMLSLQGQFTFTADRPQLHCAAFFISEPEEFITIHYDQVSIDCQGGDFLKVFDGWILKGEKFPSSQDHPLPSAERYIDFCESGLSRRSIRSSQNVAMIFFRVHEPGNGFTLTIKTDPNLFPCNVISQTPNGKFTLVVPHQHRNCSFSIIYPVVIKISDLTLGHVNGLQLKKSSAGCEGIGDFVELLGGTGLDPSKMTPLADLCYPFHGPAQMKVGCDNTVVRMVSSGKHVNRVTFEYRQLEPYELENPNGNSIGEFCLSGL
Briefly: activators of CRF receptor 2 with binding protein – uHTS hits, confirmation (AID 602473). In kind it is functional. As to conditions: read-out: EC50_Mean.

Experiment [8] in a line: CRF-BP/CRF-R2 complex antagonists, dose response, cell-based, uHTS hits, 384-well (AID 651639). In kind it is functional, Homo sapiens. The following applies: read-out: IC50_Mean.
The target of experiment [9] is T4, Heat shock factor protein 1 (Mus musculus, UniProt P38532).
T4 sequence (P38532 whole entry): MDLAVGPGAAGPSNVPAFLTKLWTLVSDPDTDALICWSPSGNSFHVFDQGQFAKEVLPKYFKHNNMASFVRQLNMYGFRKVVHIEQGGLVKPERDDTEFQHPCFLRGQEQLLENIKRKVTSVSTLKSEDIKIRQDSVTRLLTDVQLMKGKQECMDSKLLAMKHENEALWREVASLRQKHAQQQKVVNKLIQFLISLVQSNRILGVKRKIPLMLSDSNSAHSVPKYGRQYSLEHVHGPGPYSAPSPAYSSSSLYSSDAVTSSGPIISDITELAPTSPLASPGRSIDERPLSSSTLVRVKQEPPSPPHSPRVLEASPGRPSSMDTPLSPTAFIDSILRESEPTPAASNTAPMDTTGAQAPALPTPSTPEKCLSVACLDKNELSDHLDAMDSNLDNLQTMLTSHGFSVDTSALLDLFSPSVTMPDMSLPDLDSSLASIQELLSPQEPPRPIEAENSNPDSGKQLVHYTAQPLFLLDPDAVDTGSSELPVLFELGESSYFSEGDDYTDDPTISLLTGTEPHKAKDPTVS
Briefly: inhibition of MG132-induced HSE-luciferase signal, confirmation, cell-based, NIH3T3, luminescence, dose retest (AID 2382).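 Further: NIH3T3 fibroblasts with HSF1-driven luciferase reporter stressed by proteasome inhibitor MG132; luminescence from HSF1-driven luciferase expression after 8 hours of MG132 stress.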 The class given is functional.

The target in experiment [10] is T3, Corticotropin-releasing factor receptor 2/Corticotropin-releasing factor-binding protein. Briefly: Dose Response confirmation of uHTS hits for small molecule antagonists of the CRF-binding protein and CRF-R2 receptor complex. In kind it is functional. As to conditions: read-out: IC50_Mean.
Another experiment deals with Protein Wnt-3a (Mus musculus, UniProt P27467). As to the kind of experiment: Wnt3a-driven reporter signaling inhibition, dose response, selectivity assay for Gli-SUFU antagonist project, Wnt-LIGHT cells, luminescence (AID 651570).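 Further: Wnt-LIGHT reporter cells stimulated with conditioned medium from Wnt3a-producing cells.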 The class given is functional. As to conditions: read-out: IC50_Mean.
The target in experiment [11] is Hepatocyte nuclear factor 4-alpha (Homo sapiens, UniProt P41235). The class given is functional, cell-based.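 Further: biochemical luminescence-based dose-response counterscreen measuring inhibition of HNF4 dimerization, run alongside a screen for blockers of ABHD5–perilipin-5 interaction; split luciferase complementation of HNF4 fusion proteins in cell lysate measuring dimerization.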
A short description of experiment [12]: ARNT/TACC3 interaction disruptors, potency, confirmation, biochemical, AlphaScreen, cherry-picked samples (AID 651703).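 Further: His-tagged ARNT PAS-B domain paired with GST-TACC3 E629A dimer coactivator fragment; potency of inhibitors that break up the complex and lower AlphaScreen signal.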 The class given is functional, Homo sapiens.
For experiment [13], the target named is T5, 1-phosphatidylinositol 4,5-bisphosphate phosphodiesterase beta-3 (Homo sapiens, UniProt Q01970).
T5 sequence (Q01970 whole entry): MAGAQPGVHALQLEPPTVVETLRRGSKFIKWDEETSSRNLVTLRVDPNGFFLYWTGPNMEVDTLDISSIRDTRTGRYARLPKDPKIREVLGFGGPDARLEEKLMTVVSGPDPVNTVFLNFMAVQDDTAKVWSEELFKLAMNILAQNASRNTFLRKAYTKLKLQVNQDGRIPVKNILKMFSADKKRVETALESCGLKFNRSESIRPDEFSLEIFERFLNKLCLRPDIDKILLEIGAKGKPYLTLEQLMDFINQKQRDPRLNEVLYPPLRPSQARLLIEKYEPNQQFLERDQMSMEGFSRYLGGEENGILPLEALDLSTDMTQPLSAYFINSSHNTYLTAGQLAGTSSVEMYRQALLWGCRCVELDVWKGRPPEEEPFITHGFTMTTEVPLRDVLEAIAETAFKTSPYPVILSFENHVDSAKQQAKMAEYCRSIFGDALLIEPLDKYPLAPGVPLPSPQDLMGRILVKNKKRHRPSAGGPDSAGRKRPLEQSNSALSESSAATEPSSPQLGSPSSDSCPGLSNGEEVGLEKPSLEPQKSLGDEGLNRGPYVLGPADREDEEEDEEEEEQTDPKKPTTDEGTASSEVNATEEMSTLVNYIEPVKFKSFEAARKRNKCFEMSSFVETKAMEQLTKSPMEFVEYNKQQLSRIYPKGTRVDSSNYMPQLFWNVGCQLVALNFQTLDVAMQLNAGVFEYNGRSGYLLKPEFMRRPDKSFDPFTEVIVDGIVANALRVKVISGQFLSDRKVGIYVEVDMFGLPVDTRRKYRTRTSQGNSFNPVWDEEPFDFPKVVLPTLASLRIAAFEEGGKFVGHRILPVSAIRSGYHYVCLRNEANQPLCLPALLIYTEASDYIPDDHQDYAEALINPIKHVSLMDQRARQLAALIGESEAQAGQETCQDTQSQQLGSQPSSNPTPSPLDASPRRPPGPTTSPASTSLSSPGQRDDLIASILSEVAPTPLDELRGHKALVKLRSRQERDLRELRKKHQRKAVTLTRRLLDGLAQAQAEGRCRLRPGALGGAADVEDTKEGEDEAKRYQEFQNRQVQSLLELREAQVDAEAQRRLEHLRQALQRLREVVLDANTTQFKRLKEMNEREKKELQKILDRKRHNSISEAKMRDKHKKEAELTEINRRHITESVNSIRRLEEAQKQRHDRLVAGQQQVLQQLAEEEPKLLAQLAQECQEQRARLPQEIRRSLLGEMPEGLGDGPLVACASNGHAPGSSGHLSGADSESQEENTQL
As to the kind of experiment: Fluorescence-based biochemical high throughput dose response assay to identify inhibitors of phospholipase C isozymes (PLC-B3).

Experiment [14] addresses T6, 1-phosphatidylinositol 4,5-bisphosphate phosphodiesterase gamma-1 (Homo sapiens, UniProt P19174).
T6 sequence (P19174 whole entry): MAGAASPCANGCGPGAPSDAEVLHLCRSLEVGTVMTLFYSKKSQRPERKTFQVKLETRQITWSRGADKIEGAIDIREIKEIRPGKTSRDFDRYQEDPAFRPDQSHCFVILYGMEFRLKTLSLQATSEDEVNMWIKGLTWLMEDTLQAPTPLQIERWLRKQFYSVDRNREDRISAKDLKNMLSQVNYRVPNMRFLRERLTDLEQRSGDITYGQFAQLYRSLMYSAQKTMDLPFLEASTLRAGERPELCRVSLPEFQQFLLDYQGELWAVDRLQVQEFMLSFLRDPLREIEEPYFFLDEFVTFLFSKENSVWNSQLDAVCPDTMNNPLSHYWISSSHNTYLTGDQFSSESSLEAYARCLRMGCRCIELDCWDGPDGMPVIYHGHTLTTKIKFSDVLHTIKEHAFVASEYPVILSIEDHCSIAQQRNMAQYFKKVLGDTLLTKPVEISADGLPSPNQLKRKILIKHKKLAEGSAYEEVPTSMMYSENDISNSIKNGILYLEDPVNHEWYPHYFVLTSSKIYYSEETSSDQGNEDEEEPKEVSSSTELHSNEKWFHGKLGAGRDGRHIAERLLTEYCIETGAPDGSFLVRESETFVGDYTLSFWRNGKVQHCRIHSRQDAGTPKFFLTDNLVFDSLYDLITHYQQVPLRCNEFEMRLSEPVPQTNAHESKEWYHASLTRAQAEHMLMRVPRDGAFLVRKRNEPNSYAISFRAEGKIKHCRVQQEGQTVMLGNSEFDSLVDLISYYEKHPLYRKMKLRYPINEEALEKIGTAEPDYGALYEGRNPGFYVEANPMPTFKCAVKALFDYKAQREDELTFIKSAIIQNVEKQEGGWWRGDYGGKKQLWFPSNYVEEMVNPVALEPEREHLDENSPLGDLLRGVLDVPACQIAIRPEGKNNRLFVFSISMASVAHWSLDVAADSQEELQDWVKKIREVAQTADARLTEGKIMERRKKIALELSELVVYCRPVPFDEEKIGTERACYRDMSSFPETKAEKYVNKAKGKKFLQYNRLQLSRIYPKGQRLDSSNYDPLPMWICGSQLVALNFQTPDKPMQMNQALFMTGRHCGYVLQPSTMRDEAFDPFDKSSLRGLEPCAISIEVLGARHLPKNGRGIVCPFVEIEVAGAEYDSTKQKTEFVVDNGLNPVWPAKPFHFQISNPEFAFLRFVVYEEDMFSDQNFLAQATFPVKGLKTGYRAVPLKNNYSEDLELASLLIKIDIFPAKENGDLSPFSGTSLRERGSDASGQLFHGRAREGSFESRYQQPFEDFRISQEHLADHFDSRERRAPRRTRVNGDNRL
Briefly: Counterscreen for inhibitors of phospholipase C isozymes (PLC-B3): Fluorescence-based biochemical high throughput dose response assay to identify inhibitors of phospholipase C isozymes (PLC-gamma1). On the technique in general: A counterscreen serves to expose hits that act by an unwanted route or on another target.

T2 sequence (P08183 whole entry): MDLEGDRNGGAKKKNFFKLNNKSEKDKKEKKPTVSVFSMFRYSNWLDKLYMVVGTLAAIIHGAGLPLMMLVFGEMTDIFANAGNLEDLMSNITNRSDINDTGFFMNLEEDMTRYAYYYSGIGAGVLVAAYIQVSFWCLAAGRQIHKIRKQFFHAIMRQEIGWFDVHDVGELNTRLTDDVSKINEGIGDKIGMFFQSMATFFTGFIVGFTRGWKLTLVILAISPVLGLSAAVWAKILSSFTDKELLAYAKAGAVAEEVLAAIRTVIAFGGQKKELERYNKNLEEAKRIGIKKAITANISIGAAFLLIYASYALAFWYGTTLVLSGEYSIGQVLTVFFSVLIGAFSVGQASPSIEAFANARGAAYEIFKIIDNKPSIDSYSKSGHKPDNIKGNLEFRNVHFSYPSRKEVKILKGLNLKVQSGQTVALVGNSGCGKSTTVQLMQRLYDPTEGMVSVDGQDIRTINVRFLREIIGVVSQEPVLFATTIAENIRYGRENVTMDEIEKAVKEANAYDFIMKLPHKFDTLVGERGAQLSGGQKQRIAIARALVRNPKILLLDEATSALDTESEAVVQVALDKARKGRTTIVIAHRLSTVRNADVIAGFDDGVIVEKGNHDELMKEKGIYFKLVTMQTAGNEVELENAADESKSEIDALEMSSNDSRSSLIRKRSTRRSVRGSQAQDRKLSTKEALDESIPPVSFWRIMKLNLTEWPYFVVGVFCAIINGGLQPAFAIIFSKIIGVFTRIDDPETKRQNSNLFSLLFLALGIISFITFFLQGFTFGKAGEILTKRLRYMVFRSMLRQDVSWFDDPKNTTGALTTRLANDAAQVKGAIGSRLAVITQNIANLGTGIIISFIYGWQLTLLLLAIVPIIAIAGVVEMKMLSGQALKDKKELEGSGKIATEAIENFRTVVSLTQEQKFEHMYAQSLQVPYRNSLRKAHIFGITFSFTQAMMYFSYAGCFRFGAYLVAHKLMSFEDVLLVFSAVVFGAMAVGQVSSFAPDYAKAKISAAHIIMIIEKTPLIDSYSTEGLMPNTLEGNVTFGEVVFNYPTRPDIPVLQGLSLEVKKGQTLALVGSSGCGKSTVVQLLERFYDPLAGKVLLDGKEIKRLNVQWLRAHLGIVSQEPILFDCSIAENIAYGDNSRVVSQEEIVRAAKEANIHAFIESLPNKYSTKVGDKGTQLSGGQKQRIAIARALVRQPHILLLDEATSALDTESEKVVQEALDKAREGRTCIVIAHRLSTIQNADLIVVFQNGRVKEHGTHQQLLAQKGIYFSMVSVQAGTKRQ
Sequence of Photoreceptor-specific nuclear receptor (Q9Y5X4 whole entry, the tested form may be a part): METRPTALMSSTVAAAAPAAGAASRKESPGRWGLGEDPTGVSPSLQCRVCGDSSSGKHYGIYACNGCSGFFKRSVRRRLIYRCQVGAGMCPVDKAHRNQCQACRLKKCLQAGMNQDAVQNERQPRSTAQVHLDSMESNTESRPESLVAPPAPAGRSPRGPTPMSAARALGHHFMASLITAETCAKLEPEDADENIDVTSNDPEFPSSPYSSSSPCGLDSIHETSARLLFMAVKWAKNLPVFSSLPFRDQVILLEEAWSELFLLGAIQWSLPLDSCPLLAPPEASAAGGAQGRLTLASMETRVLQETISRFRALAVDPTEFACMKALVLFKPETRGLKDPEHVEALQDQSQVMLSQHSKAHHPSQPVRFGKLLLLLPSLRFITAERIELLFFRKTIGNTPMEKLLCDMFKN
Sequence of Dual specificity protein phosphatase 3 (P51452 whole entry): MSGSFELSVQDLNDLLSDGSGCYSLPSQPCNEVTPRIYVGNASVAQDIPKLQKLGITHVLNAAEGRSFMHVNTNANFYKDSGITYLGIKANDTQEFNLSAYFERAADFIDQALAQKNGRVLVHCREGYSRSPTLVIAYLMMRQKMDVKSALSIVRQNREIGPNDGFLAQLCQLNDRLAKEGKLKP
Sequence of Tyrosine-protein phosphatase non-receptor type 11 (Q06124 whole entry): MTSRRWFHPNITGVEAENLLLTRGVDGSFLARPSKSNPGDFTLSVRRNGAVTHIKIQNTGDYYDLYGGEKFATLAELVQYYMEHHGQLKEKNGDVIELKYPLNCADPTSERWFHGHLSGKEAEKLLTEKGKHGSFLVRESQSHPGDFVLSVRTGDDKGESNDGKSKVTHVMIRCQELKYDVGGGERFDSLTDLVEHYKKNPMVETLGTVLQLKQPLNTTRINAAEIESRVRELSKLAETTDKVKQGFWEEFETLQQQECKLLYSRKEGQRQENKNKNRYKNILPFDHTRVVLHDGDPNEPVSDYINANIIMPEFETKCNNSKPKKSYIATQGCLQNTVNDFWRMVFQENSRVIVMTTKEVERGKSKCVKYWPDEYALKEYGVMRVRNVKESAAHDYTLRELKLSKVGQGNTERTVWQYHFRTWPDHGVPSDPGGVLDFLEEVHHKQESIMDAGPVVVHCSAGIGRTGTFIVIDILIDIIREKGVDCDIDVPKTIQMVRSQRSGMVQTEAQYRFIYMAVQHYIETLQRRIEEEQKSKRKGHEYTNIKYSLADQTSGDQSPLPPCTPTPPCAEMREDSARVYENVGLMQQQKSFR
Sequence of Protein Wnt-3a (P27467 whole entry, the tested form may be a part): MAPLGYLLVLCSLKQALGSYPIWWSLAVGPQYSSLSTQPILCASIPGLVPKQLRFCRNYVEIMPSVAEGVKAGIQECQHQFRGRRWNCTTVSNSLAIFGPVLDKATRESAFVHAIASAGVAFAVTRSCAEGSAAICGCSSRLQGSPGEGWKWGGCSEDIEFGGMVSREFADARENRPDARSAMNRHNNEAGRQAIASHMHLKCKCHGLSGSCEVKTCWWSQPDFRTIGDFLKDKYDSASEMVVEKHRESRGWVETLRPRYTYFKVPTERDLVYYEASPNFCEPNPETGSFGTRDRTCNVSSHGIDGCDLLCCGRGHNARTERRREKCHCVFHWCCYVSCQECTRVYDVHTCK
Sequence of Tyrosine-protein phosphatase non-receptor type 5 (P54829 whole entry): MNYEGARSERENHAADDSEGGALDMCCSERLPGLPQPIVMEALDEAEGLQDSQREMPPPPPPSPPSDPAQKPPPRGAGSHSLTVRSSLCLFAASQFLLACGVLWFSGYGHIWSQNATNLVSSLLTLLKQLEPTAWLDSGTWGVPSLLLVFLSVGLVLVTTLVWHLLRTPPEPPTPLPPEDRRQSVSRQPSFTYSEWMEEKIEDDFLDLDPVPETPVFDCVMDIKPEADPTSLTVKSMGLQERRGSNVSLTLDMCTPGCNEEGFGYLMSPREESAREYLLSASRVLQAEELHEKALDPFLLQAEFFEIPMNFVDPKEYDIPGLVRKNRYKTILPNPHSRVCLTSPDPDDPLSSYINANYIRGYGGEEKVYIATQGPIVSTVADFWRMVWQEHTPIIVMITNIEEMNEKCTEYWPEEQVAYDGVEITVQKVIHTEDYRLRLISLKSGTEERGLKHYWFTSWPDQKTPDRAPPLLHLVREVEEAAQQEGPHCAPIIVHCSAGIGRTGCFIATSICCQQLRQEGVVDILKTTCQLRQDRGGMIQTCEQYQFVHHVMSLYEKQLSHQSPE
Sequence of Hepatocyte nuclear factor 4-alpha (P41235 whole entry, the tested form may be a part): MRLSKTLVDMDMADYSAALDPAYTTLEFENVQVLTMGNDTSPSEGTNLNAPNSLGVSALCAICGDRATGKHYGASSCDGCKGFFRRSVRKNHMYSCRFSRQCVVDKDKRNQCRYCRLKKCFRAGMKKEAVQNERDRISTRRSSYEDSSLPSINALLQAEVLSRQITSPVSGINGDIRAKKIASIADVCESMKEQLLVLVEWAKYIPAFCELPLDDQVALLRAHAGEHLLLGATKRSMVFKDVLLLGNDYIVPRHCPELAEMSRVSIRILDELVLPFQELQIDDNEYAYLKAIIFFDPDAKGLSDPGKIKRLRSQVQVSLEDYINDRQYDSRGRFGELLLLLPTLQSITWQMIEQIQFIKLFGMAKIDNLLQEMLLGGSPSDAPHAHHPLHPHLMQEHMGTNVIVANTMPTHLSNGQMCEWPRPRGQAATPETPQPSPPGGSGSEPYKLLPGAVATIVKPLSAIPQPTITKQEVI

Turning to `CC(C(=O)N1CCN(c2ccc(Cl)cc2)CC1)c1ncc(C(F)(F)F)cc1Cl` (stereo unspecified), the IC50 in experiment [1] was 3.65 µM (active).

For `COC(=O)c1ccccc1CSc1nsc(/C=C/N(C)C)c1C#N`, the IC50 is 14.5 µM (active) in experiment [2], 2.38 µM (active) in [3] and 1.29 µM (active) in [4]. For the same molecule, the AC50 – broadly, the concentration giving half of the maximal activity seen – on Caspase-6 was 34.5 µM (active).

In the case of `Cc1cc(N2CCN(C(=O)c3ccco3)CC2)n2nc(C)c(-c3ccc(Cl)cc3)c2n1`, the EC50 is 17.7 µM (inactive) in experiment [5] and 28.1 µM (inactive) in experiment [6].

With `COc1cccc2cc(-c3nnc(-c4ccccc4)o3)c(=O)oc12`, the EC50 was > 53 µM (inactive) in experiment [7] and 70.4 µM (active) in experiment [9]. For the same molecule, the IC50 in experiment [8] was 0.675 µM (active); in [10] it was < 0.368 µM (active).

Consider `CCC(C)CCN1C(N(C)C)=NC[C@@H]1CC(C)C` (stereo partly specified), for which the IC50 on Protein Wnt-3a is 6.72 µM (active).

For the molecule `N#Cc1ccc(C(C(=O)NC2CCCCC2)n2c(=O)c(-c3ccco3)nc3ccccc32)cc1` (stereo unspecified), in experiment [11], the IC50 is 2.39 µM (active).

Turning to `CCOc1ccccc1Nc1nc(N)nc(CN(C)C2CCCCC2)n1`, the AC50 in experiment [12] is 80.6 µM (active). Besides, the IC50 in experiment [13] and in experiment [14] was > 123 µM (inactive) throughout.
